Laboratory results as given in article PMC3103786 (Journal of medicinal chemistry, 2009).

Test system: nNOS
Test: In vitro NOS inhibition, hemoglobin capture assay
Type: biochemical
Details: ratio of Ki values, eNOS over nNOS

Compound | eNOS/nNOS
Nc1cccc(CC2CNCC2NCCCO)n1 (racemic) [compound 4, (±)-3-{cis-4'-[(6“-aminopyridin-2”-yl)methyl]pyrrolidin-3'-ylamino}propan-1-ol] | 39
Cc1cc(N)nc(CC2CNCC2NCCNCc2ccc(Cl)cc2)c1 (racemic) [compound 6, (±)-N^1-{cis-4'-[(6“-amino-4”-methylpyridin-2“-yl)methyl]pyrrolidin-3'-yl}-N^2-(4'-chlorobenzyl)ethane-1,2-diamine] | 1002
Cc1cc(N)nc(CC2CNCC2NCCNCc2cccc(Cl)c2)c1 (racemic) [compound 7, (±)-N^1-{trans-4'-[(6“-amino-4”-methylpyridin-2”-yl)methyl]pyrrolidin-3'-yl}-N^2-(3'-chlorobenzyl)ethane-1,2-diamine] | 381
